Experimental data: patent publication US11535643B2, “Macrolides with modified desosamine sugars and uses thereof” (President and Fellows of Harvard College, priority 2015, dated 2022)
Where two headings read alike, the source gives them in different places.

Experiments:
Format in all cases: cell-based
[1] = tested on: S. aureus; experiment: Broth dilution MIC determination (CLSI) against S. aureus strains; details: for MIC: Staphylococcus aureus
Source text: (§1) Minimum inhibitory concentrations (MICs) for macrolides described herein have been determined for unique strains of S. aureus, S. pneumoniae, S. pyogenes, E. faecalis, E. coli, A. baumannii, K. pneumoniae, P. aeruginosa, and H. influenzae, including several multidrug-resistant strains, with a special focus on macrolide resistant mechanisms. Azithromycin and solithromycin were included as control compounds. CLSI standard procedures for broth dilution MIC determination were used. Data for exemplary compounds described herein is shown in Tables M1-M7 and in Tables N1-N4.

[2] = tested on: A. baumannii; experiment: Broth dilution MIC determination (CLSI) against A. baumannii strains; details: for MIC: Acinetobacter baumannii
Source text: as §1

[3] = tested on: S. pneumoniae; experiment: Broth dilution MIC determination (CLSI) against S. pneumoniae strains; details: for MIC: Streptococcus pneumoniae
Source text: as §1

[4] = tested on: E. coli; experiment: Broth dilution MIC determination (CLSI) against E. coli strains; details: for MIC: Escherichia coli
Source text: as §1

[5] = tested on: S. pyogenes; experiment: Broth dilution MIC determination (CLSI) against S. pyogenes strains; details: for MIC: Streptococcus pyogenes
Source text: as §1

[6] = tested on: E. faecalis; experiment: Broth dilution MIC determination (CLSI) against E. faecalis strains; details: for MIC: Enterococcus faecalis
Source text: as §1

[7] = tested on: P. aeruginosa; experiment: Broth dilution MIC determination (CLSI) against P. aeruginosa strains; details: for MIC: Pseudomonas aeruginosa
Source text: as §1

[8] = tested on: K. pneumoniae; experiment: Broth dilution MIC determination (CLSI) against K. pneumoniae strains; details: for MIC: Klebsiella pneumoniae
Source text: Minimum inhibitory concentrations (MICs) for macrolides described herein have been determined for unique strains of S. aureus, S. pneumoniae, S. pyogenes, E. faecalis, E. coli, A. baumannii, K. pneumoniae, P. aeruginosa, and H. influenzae, including several multidrug-resistant strains, with a special focus on macrolide resistant mechanisms. Azithromycin and solithromycin were included as control compounds. CLSI standard procedures for broth dilution MIC determination were used.

CC[C@H]1OC(=O)[C@H](C)C(=O)[C@H](C)[C@@H](O[C@@H]2O[C@H](C)CC(N3CCCC3)C2O)[C@](C)(OC)C[C@@H](C)CN[C@H](C)[C@H]2N(CCCCn3cc(-c4cccc(N)c4)nn3)C(=O)O[C@]12C (some centres unmarked) [FSM-120361]
4 µg/mL: MIC ([4]; ATCC25922, ATCC25922:tolC, Strain No. MP-9, read-out: MIC E. coli ATCC25922:tolC) | MIC ([6]; ATCC29212, ATCC29212, Strain No. MP-24, read-out: MIC E. faecalis ATCC29212) | MIC ([8]; ATCC10031, ATCC10031, Strain No. MP-14, read-out: MIC K. pneumoniae ATCC10031)
0.06 µg/mL: MIC ([5]; ATCC19615, ATCC19615, Strain No. MP-19, read-out: MIC S. pyogenes ATCC19615)
0.5 µg/mL: MIC ([5]; mac resistant, Strain No. MP-625 UNT-014, read-out: MIC S. pyogenes mac resistant)
32 µg/mL: MIC ([1]; ATCC29213, ATCC29213, Strain No. MP-12, read-out: MIC S. aureus ATCC29213) | MIC ([1]; ATCCBAA977, ATCCBAA-977, Strain No. MP-17, read-out: MIC S. aureus ATCCBAA-977) | MIC ([1]; MRSA / USA300, USA300, Strain No. MP-549, read-out: MIC S. aureus (MRSA) USA300) | MIC ([2]; ATCC19606, ATCC19606, Strain No. MP-15, read-out: MIC A. baumannii ATCC19606) | MIC ([4]; ATCC25922, ATCC25922, Strain No. MP-4, read-out: MIC E. coli ATCC25922) | MIC ([4]; clinical, Strain No. MP541, read-out: MIC E. coli clinical)
> 64 µg/mL: MIC ([1]; MRSA / USA100, USA100, Strain No. MP-618 UNT-096, read-out: MIC S. aureus (MRSA) USA100) | MIC ([1]; MRSA / USA600, GISA USA600, Strain No. MP-619 UNT-120, read-out: MIC S. aureus (MRSA) GISA USA600) | MIC ([1]; MRSA, ST-228 cErm, Strain No. MP-513, read-out: MIC S. aureus (MRSA) ST-228 cErm) | MIC ([2]; clinical, Strain No. MP576, read-out: MIC A. baumannii clinical) | MIC ([4]; clinical-cErm, Strain No. MP532, read-out: MIC E. coli clinical-cErm) | MIC ([6]; van resistant, Strain No. UNT-039, read-out: MIC E. faecalis van resistant) | MIC ([7]; PAO1, read-out: MIC P. aeruginosa PAO1) | MIC ([7]; ATCC27853, Strain No. MP-3, read-out: MIC P. aeruginosa ATCC27853) | MIC ([8]; clinical, Strain No. MP546, read-out: MIC K. pneumoniae clinical)
16 µg/mL: MIC ([7]; PAO1, read-out: MIC P. aeruginosa PAO1:mex)
0.25 µg/mL: MIC ([3]; ATCC49619, ATCC49619, Strain No. MP-21, read-out: MIC S. pneumoniae ATCC49619)
64 µg/mL: MIC ([2]; clinical, Strain No. MP577, read-out: MIC A. baumannii clinical) | MIC ([8]; clinical, Strain No. MP548, read-out: MIC K. pneumoniae clinical)
0.125 µg/mL: MIC ([3]; read-out: MIC S. pneumoniae mefA, mefA, Strain No. MP-626 UNT-038) | MIC ([3]; read-out: MIC S. pneumoniae mefA, mefA, Strain No. MP-627 UNT-039)

CCC1OC(=O)C(C)C(=O)C(C)C(OC2OC(C)CC(n3cccc3)C2O)C(C)(OC)CC(C)CNC(C)C2N(CCCCn3cc(-c4cccc(N)c4)nn3)C(=O)OC12C (centres unmarked) [FSM-120362]
2 µg/mL: MIC S. pyogenes ATCC19615 ([5]; ATCC19615, Strain No. MP-19)
>32 µg/mL: MIC S. aureus (MRSA) GISA USA600 ([1]; GISA USA600, Strain No. MP-619 UNT-120) | MIC S. aureus (MRSA) ermA phenotype ([1]; ermA phenotype, Strain No. MP-620 UNT-146) | MIC A. baumannii clinical ([2]; clinical, Strain No. MP576) | MIC A. baumannii clinical ([2]; clinical, Strain No. MP577) | MIC E. coli ATCC25922 ([4]; ATCC25922, Strain No. MP-4) | MIC E. coli clinical ([4]; clinical, Strain No. MP541) | MIC E. coli clinical-cErm ([4]; clinical-cErm, Strain No. MP532) | MIC E. faecalis van resistant ([6]; van resistant, Strain No. UNT-039) | MIC P. aeruginosa ATCC27853 ([7]; ATCC27853, Strain No. MP-3) | MIC P. aeruginosa PAO1 ([7]; PAO1, Strain No. MP-7) | MIC K. pneumoniae clinical ([8]; clinical, Strain No. MP546) | MIC K. pneumoniae clinical ([8]; clinical, Strain No. MP548)
64 µg/mL: MIC E. faecalis ATCC29212 ([6]; ATCC29212, Strain No. MP-24)
>64 µg/mL: MIC S. aureus ATCC29213 ([1]; ATCC29213, Strain No. MP-12) | MIC S. aureus ATCCBAA-977 ([1]; ATCCBAA-977, Strain No. MP-17) | MIC S. aureus (MRSA) ST-228 cErm ([1]; ST-228 cErm, Strain No. MP-513) | MIC S. aureus (MRSA) USA100 ([1]; USA100, Strain No. MP-618 UNT-096) | MIC S. aureus (MRSA) USA300 ([1]; USA300, Strain No. MP-549) | MIC A. baumannii ATCC19606 ([2]; ATCC19606, Strain No. MP-15) | MIC E. coli ATCC25922:tolC ([4]; ATCC25922:tolC, Strain No. MP-9) | MIC P. aeruginosa PAO1:mex ([7]; PAO1:mex, Strain No. MP-8) | MIC K. pneumoniae ATCC10031 ([8]; ATCC10031, Strain No. MP-14)
4 µg/mL: MIC S. pneumoniae mefA ([3]; Strain No. MP-626 UNT-038)
16 µg/mL: MIC S. pyogenes mac resistant ([5]; mac resistant, Strain No. MP-625 UNT-014)
8 µg/mL: MIC S. pneumoniae ATCC49619 ([3]; ATCC49619, Strain No. MP-21) | MIC S. pneumoniae mefA ([3]; Strain No. MP-627 UNT-039)
